Laboratory results as given in patent publication US20110124617A1, “Combination Therapy for BreastCancer Comprising an Antiestrogenic Agent” (priority 2008, published 2011).

What was measured:
[1] = tested on: hot flashes; experiment: alleviation of hot flashes in a postmenopausal breast cancer patient treated with tamoxifen citrate; assay type: in vivo, human; settings: postmenopausal patient on tamoxifen citrate (20 mg tamoxifen free base)
Method: A postmenopausal patient is being treated in the adjuvant setting for breast cancer with the SERM tamoxifen citrate (dosage of 20 mg tamoxifen free base). They are experiencing hot flashes as a result of their treatment.

[2] = tested on: rat uterus; settings: cited from earlier work; for estrogenic stimulation on the rat uterus: compound alone

Row | SMILES | alleviation of hot flashes ([1]; 20 mg once daily) | alleviation of hot flashes ([1]; dosage adjusted to 50 mg) | estrogenic stimulation on the rat uterus [2] | antagonism of the estrogenic effect of estradiol on the uterus ([2]; with estradiol)
1 | CCNCCc1ccc(CN(CC)c2cc(OC)ccc2[C@@H]2CCc3cc(O)ccc3C2)cc1 [compound of formula I] | partial alleviation of their symptoms | almost complete alleviation of their hot flushes | no estrogenic stimulation | could antagonize the estrogenic effect of estradiol on the uterus and bring it back to control levels
2 | O=C(c1ccc(OCCN2CCCCC2)cc1)c1c(-c2ccc(O)cc2)sc2cc(O)ccc12 [raloxifene, reference compound] | – | – | did stimulate the uterus | –
3 | CC/C(=C(\c1ccccc1)c1ccc(OCCN(C)C)cc1)c1ccccc1 [tamoxifen, reference compound] | – | – | did stimulate the uterus | –
